US8383172B2, “Recovery of hydrophobic peptides from oils” (University of Saskatchewan, priority 2007, dated 2013)

Assays:
[1] = system: human lung adenocarcinoma cells (Calu-3); test: Microarray analysis of apoptosis-regulating genes in Calu-3 cells; type: cell-based; set-up: key: ‘+’ and ‘−’ indicates genes over- and under-expressed, respectively; ‘+’ and ‘−’ indicates genes over- and under-expressed, respectively
Protocol: Cell culture. Human bronchial epithelial adenocarcinoma cell line (Calu-3) was obtained from ATCC (Manassas, Va., USA) and cultured in 50 cm^2 plastic culture flasks in modified eagle's medium (MEM) supplemented with 10% fetal bovine serum, glutamine (4 mM; Sigma-Aldrich, Canada) and penicillin (100 U mL-1)-streptomycin (100 μg mL-1) solution (Sigma-Aldrich, Canada). Cells were cultured at an initial density of 10^6 cells/mL, and fresh media was added on day 3. Cells were grown in an incubator at 37° C., 5% CO2, and 100% humidity.
Chemical treatments. Calu-3 cells were treated with different concentrations (0-100 μM) of cyclolinopeptide A (“CLA”), cyclolinopeptide C (“CLC”) or cyclolinopeptide E (“CLE”). Camptothecin (Sigma-Aldrich, Canada; 4 μM) and dimethylsulfoxide (DMSO) were used as positive and negative controls, respectively. Camptothecin is useful as a positive control in studies testing the effect of certain compounds on apoptosis in cancer cell lines. Camptothecin is a cytotoxic quinoline alkaloid that inhibits the DNA enzyme topoisomerase I (topo I) and has shown remarkable anti-cancer activity. Two analogs of camptothecin have been approved and are used in cancer chemotherapy.
Current microarray design platforms facilitate the design of gene expression arrays for analysis of a compound of interest and its impact on a large number of known genes. Cyclolinopeptide A, cyclolinopeptide C and cyclolinopeptide E were therefore used in microarray analysis to determine their effect on under- and over-expression of genes involved in the regulation of apoptosis in human lung adenocarcinoma cells (Table 2).

heat shock gene HSP70A = test: Expression of heat shock gene HSP70A in nematode cultures exposed to cyclolinopeptide-A; type: in vivo, Caenorhabditis elegans; conditions: two hours exposure, C. elegans
Source text: FIG. 17 is a chart showing the effects of cyclolinopeptide A on the expression of the HSP70A gene in Caenorhabditis elegans. Bars on the columns represent standard deviations. Letters above the bars designate significant differences determined by data analysis using one-way analysis of variance with pair-wise multiple comparisons were done by the Tukey test; and
The following example relates to the use of selected purified individual cyclolinopeptides recovered and processed as disclosed herein for modulating the expression of stress genes. Nematode cultures (Caenorhabditus elegans) were exposed for two hours to one of DMSO (negative control), 0.1 μM cyclolinopeptide-A, 1.0 μM cyclolinopeptide-A, 10.0 μM cyclolinopeptide-A, and 100.0 μM cyclolinopeptide-A, and then cultured to assess the effects of cyclolinopeptide-A on the expression of the heat shock gene HSP70A by C. elegans. The control treatment was unamended culture medium.

Substance	BCL-2 gene up- or down-regulated [1]	CASP10 gene up- or down-regulated [1]	CDEB gene up- or down-regulated [1]	CIDEA gene up- or down-regulated [1]	Fas gene up- or down-regulated [1]	HRK gene up- or down-regulated [1]	TNF gene up- or down-regulated [1]	TP53BP2 gene up- or down-regulated [1]	TP53 gene up- or down-regulated [1]	increase in the production of the Hsp70A protein (heat shock gene HSP70A; 0.1 μM in culture media) [%]	increase in the production of this heat shock protein (Hsp70A) (heat shock gene HSP70A; 1.0 μM in culture media) [fold]	increase in the production of the Hsp70A protein (heat shock gene HSP70A; 10.0 μM in culture media) [%]	BAK gene up- or down-regulated [1]	FASLG gene up- or down-regulated [1]
cyclolinopeptide C [CLP-C]	−	+	+	+	+	+	+	+	+					
cyclolinopeptide E [CLP-E]	−		+	+	+	+	+	+						
cyclolinopeptide A [CLP-A]	+		+		+		+	+	+	30	3.5	30	+	+
